In ChEMBL document CHEMBL3507680, “University of Dundee, Gates Library screen for HepG2 cell viability”:

Assay: Human HepG2 cell viability assay in 384 well format
Assay type: toxicity, cell-based
Set-up: dose 125 nL, time 70.5 hour; cytotoxicity at 70.5 h: concentration not given beside the values
Conditions: HepG2 cells, read-out: Inhibition

SMILES	cytotoxicity at 70.5 h [%]
CC(C)(C)c1n[nH]c(C2CN(Cc3nnc(C4CCC4)o3)CCO2)n1 (centres undefined)	-2.38
CN1CCNC(=O)C1CC(=O)NCCc1cnn(-c2ccccc2)c1 (centres undefined)	19.9
COc1ccc(NC2CCCN(Cc3cnc(N(C)C)s3)C2)cc1OC (centres undefined)	-12
COc1cccc(CCC2CCCCN2)c1 (centres undefined)	0.0655
CC(NC(=O)N(C)Cc1ccsc1)c1ccc2c(c1)CCC(=O)N2 (centres undefined)	-3.94
Cc1cc(N2CCCC2(C)c2nc(C)cc(C(=O)N(C)C)n2)ncn1 (centres undefined)	-2.78
O=C(Cc1ccccc1F)N1CCCCC1c1ccn2ccnc2n1 (centres undefined)	-6.86
CCc1ccc(S(=O)(=O)Nc2cc(C(=O)O)c(F)cc2F)s1	26.3
Cc1noc([C@@]23CCO[C@@H]2CCN(C(=O)c2c(C)noc2C)C3)n1	-1.33
Cc1cnc(CN2CCN(c3nc(C)cs3)C(C)C2)cn1 (centres undefined)	-16.4
COc1ccc2c(c1)CCCN2C(=O)c1cccc(N(C)C)c1	3.26
Cc1ccc(C(=O)NCCCn2cccn2)c(=O)[nH]1	-0.293
CC(CN1CCCC1=O)NC(=O)NCc1ccccc1-n1cccn1 (centres undefined)	-11.4
Cc1ccc2cc(CN(C)Cc3ncc[nH]3)c(=O)[nH]c2c1	26.6
Cc1nnc2n1CCN(C(=O)c1cc(Br)c[nH]1)C2	-5.46
O=C(C1CCC1)N1CCN(Cc2ccc(F)cc2)[C@H]2CS(=O)(=O)C[C@H]21	-3.17
CCC1(C)Cc2ccccc2-c2nc(NCCCO)nc(O)c21 (centres undefined)	-4.42
Cc1cc2ccncc2n1CC1(O)CCN(C(=O)c2ccccn2)CC1	-1.41
CC(C)c1nn(C)c(N(C)C)c1CNCc1ccc2c(c1)OCCO2	-5.83
CCOc1ccc(NC(=O)Cn2cc(I)cn2)cc1	-18.2
CCn1nc(C)c(C(=O)N2CCC(Nc3ccc(C)nn3)CC2)c1C	-106
COCCn1nc(C(=O)N(C)Cc2cnn(C)c2)ccc1=O	42.3
O=C(NCc1ccccc1)[C@H]1C[C@@H]2CN(S(=O)(=O)C3CC3)C[C@H]1O2	-10.1

SMILES	cytotoxicity at 70.5 h [%]
Cc1ccc(CN2CCn3c(C(=O)N(C)C)cnc3C2)cc1	2.94
CCOc1cc(CN(C)CCOC)ccc1OC(F)F	12.4
CN1CCN(C)C2(CCN(Cc3ccsc3)CC2)C1=O	16.8
COC(=O)CC(c1ccc(O)c(Cl)c1)c1oc(C)cc(=O)c1O (centres undefined)	1.45
O=C(CC1CC1)N1Cc2nccn2CC(CN2CCCC2)C1 (centres undefined)	16.9
Cc1cc(C(=O)N2CCCCC2)ccc1NS(C)(=O)=O	-8.47
CC(Cc1ccccn1)N(C)Cc1ccc2c(c1)CCO2 (centres undefined)	-8.85
Cc1ncsc1CN1C[C@H](C(=O)N2CCCO2)[C@@H]2CCO[C@@H]2C1	-0.785
CCOc1ncccc1CNC(=O)c1cc(C)on1	-8.59
Cc1n[nH]c2c1C(c1ccsc1)SCC(=O)N2 (centres undefined)	8.67
Cn1ncc2c(=O)[nH]c(CN3CCCC3c3cccs3)nc21 (centres undefined)	-10.3
Cn1cc(CN2CCCC3(COCCN(c4cccnc4)C3)C2)cn1 (centres undefined)	-6.27
CC1CN(C)CCN1CC(=O)NCCOc1cccc(F)c1 (centres undefined)	-1.27
Cn1nc(CN2CCCC2)c2c1CN(c1cnccn1)CC2	-3.39
Cn1ccc(C(=O)N2CCCC(Cc3cnc4ccccc4c3)C2)n1 (centres undefined)	-1.48
Oc1nc(-c2cnccn2)nc2c1CCN(Cc1ccccn1)C2	-5.26
CC(C)Cc1noc(CN2CCCC(Cn3cncn3)C2)n1 (centres undefined)	3.45
Cc1nnc([C@@H]2CC[C@@H]3[C@@H](CCN3C3CCOCC3)O2)o1	-3.43
O=C(COC1CCCC1)NS(=O)(=O)c1ccc2c(c1)OCCCO2	-6.27
O=c1oc(-c2ccc(F)cc2)nn1CN1CCSCC1	-15
CC(C)CCN1CCc2nc(N3CCOCC3)nc(NC(C)C)c2C1	-16.5
CC(C)CCCC1CN(C(=O)c2cnc[nH]2)CCO1 (centres undefined)	-11.4
CNS(=O)(=O)Cc1cccc(CNc2ccc(Cl)cn2)c1	4.33

SMILES	cytotoxicity at 70.5 h [%]
CCC(O)CN1CCN(C(=O)c2cccn2Cc2cccs2)CC1 (centres undefined)	-17.9
Cc1nnc(N(CCC#N)CCC#N)s1	-5.52
CC[C@H](C)Nc1nccc(-c2cnc3sc(C)cn3c2=O)n1	-5.35
CC1CCCN1C1CCN(C(=O)c2cccc(F)c2)CC1 (centres undefined)	6.94
CN1CCN(C[C@@H]2OC[C@H]3CN(CCc4ccccc4)CC[C@H]32)CC1	-0.223
CSc1ncccc1C(=O)N1CCC2(CC1)c1nc[nH]c1CCN2C	7.45
CS(=O)(=O)N1CCc2[nH]nc(Cc3cccs3)c2C1	-2.7
COc1ccccc1CC(C)(C)NC(=O)CNS(C)(=O)=O	-2.04
CC(=O)N1CCC(N2CCOC[C@H]2c2nc(-c3cccnc3)c[nH]2)CC1	17.9
O=C(c1cscn1)N1CCC2(CCN(Cc3cccs3)CC2)C1	-6.38
O=C(CCc1ccsc1)Nc1ccnn1C1CCS(=O)(=O)C1 (centres undefined)	16.5
CSc1ccc(C(=O)N2CCOCC2c2c(C)n[nH]c2C)o1 (centres undefined)	18.3
c1cncc(COCc2nnn3c2CN(Cc2ccsc2)CC3)c1	-2.9
CC(=O)N1CCC(c2nc3ccc(NC4CCC4)cn3n2)CC1	-5.56
CCN(C(=O)CCCOc1ccccc1F)c1ccncc1	1.58
O=C(O)[C@@H]1CN(C(=O)CCCc2ccc(F)cc2)C[C@H]1C1CC1	-5.36
COCC1COCCC12CCN(S(=O)(=O)c1cccnc1)CC2 (centres undefined)	-1.01
CCNc1cc2c(nn1)CCN(C(=O)c1ccc3c(c1)OCO3)C2	-4.42
NC(=O)c1c[nH]nc1NC(=O)c1ccc(Cl)cc1	-3.88
CNS(=O)(=O)c1ccc(C(=O)NCc2ccnc(OC)c2)cc1	-10
CO[C@@H]1CCN(Cc2cnn(C)c2)[C@@H]2CN(Cc3cccnc3)C[C@@H]21	-9.6
CCOC(=O)N1CCCC2(CCN(Cc3ccccc3C#N)C2)C1 (centres undefined)	-6.46
CC(C)CN1CCCn2nc(CNC(=O)CCN)cc2C1	-6.27

SMILES	cytotoxicity at 70.5 h [%]
CCc1nc(C2CCCN2CCc2cccs2)no1 (centres undefined)	17.3
CSCC(=O)N1CCOC(c2nc(C)n[nH]2)C1 (centres undefined)	-12.3
Cc1nc(N2CCCC(N3CCCC3)C2)c2cnn(C)c2n1 (centres undefined)	-5.42
Cc1nc(CN2CCc3cncnc3C2)oc1C	-5.69
O=C(CSc1nccc(-c2ccc3c(c2)OCO3)n1)N1CCOCC1	-1.22
COCC(=O)N1CCC(c2cncc(-c3cccc(F)c3)n2)CC1	-7.23
OC1CCN(CCCNc2nccc(C3CCCC3)n2)CC1	-2.73
CCN1CCN(C2CCN(Cc3ncc(C(C)(C)C)o3)CC2)C1=O	-8.55
COCCOCC(=O)NCCCOC1CCCc2ccccc21 (centres undefined)	27.2
CCOc1ccc(N(C)Cc2nc(C)c(C)o2)cc1	15.3
NCC(=O)N1CCC2(CC1)CN(C(=O)Cc1ccc(Cl)cc1)CCO2	-14.9
Cc1ccc(CNC2(Cc3cc(-c4ccccc4)on3)COC2)o1	-0.988
N#Cc1cc(Br)ccc1NC1CCN(CC(N)=O)CC1	-2.02
CN(Cc1noc2c1CCCC2)C(=O)Cn1cnc2ccccc2c1=O	-9.78
Cc1ccn(-c2ccccc2NCc2cscn2)n1	10.6
CCOc1cccc(C(C)NCc2ccc(OC)c(OC)c2OC)c1 (centres undefined)	6.82
CCC(CO)N(Cc1cccnc1)C(=O)c1ccoc1C (centres undefined)	0.679
Cc1noc(C)c1CN1CCO[C@H]2CN(Cc3cncn3C)C[C@H]21	19
CN(C)c1nccnc1C1CCN(c2cnccn2)CC1	-3.32
CCN(Cc1ccco1)C(=O)NCc1nnc2n1CCCCC2	5.47
CC(C)C(C(=O)N1CCCN(c2nccs2)CC1)n1cncn1 (centres undefined)	1.24
CCS(=O)(=O)CCNC(=O)C1(c2cccc(Cl)c2)CC1	15.5
COc1ccccc1CC(C)CC(=O)N(C)Cc1cc(C)on1 (centres undefined)	2.26

SMILES	cytotoxicity at 70.5 h [%]
Cn1ncc2c(N[C@H]3CCCC[C@@H]3O)nc(C(C)(C)C)nc21	-2.77
O=C(COC[C@@]12CCC[C@@H]1CN(C1CCC1)C2)N1CCCC1	-9.27
O=C(c1ccnn1COc1ccc(Cl)cc1)N1CCCC1	-1.93
O=C([C@H]1CC[C@@H]2[C@@H](CCN2Cc2nccs2)O1)N1CCOCC1	-5.21
Cc1cc(C)c2ncn(CC(C)(C)CO)c(=O)c2c1	-6.8
CCOC(=O)CC1CCCCN1C(=O)c1cc(C)oc1C (centres undefined)	3.76
CC(C)c1nn(C)c(N2CCOCC2)c1CNC(C)c1cccs1 (centres undefined)	-1.47
COCCNC(=O)CCNC(=O)c1ccc(N2CCC(C)=N2)cc1	-16
CNC(=O)C(C)(C)N1CCC[C@H]1C(=O)NCC1CC1	9.57
O=C(c1ccc[nH]1)N1CCc2c(cccc2S(=O)(=O)N2CCOCC2)C1	29.8
CCS(=O)(=O)NCCNC(C)(C)c1nc(C)cs1	-2.97
O=C1CCC2(CCCN(c3ncnc4[nH]cnc34)C2)CN1CCCO (centres undefined)	-14.3
NC(=O)c1cccc(CCNCc2cnc(C3CCC3)s2)c1	7.84
CN(Cc1cc2cc(F)ccc2[nH]1)C(=O)C1CC(=O)N(C(C)(C)C)C1 (centres undefined)	-1.21
Cc1cc(NC(=O)CN2CCn3c(nnc3-c3ccccc3)C2)no1	-1.17
CC(C)Cc1cc(C(=O)N2CCC(Cc3cnn(C)c3)C2)cc(O)n1 (centres undefined)	-11.1
COCCNC(=O)[C@@H]1CC[C@@H]2[C@@H](CCN2Cc2cnn(C)c2)O1	-18.7
O=C(CCNC(=O)c1ccoc1)NCc1ccccc1F	-11
CCc1c(C(=O)N2CC[C@H](N3CCOCC3)[C@H](CCCO)C2)csc1C	-20.4
Cc1ccc(C(CNC(=O)c2cc(=O)c3ccccc3[nH]2)N(C)C)cc1 (centres undefined)	-4.48
CCn1cc(-c2cc(-c3cc(CC(=O)O)cs3)nc(N)c2C#N)c(C)n1	-0.397
Cc1nccn1-c1cncc(C2CCCN2Cc2ccccc2)n1 (centres undefined)	14.2
